{"source": "patent US20050070519A1", "about": "“Cyclisation process for the preparation of c-2 beta-lactam compounds” (priority 2001, published 2005)", "biological_target": "T1, BLS (β-lactam synthetase), polyhistidine tagged (Streptomyces clavuligerus, UniProt P0DJQ7)", "T1 construct": "made in house; host or cells: E. coli BL21(DE3), co-expressed with chaperonin GroELS", "T1 sequence (P0DJQ7 1-513)": "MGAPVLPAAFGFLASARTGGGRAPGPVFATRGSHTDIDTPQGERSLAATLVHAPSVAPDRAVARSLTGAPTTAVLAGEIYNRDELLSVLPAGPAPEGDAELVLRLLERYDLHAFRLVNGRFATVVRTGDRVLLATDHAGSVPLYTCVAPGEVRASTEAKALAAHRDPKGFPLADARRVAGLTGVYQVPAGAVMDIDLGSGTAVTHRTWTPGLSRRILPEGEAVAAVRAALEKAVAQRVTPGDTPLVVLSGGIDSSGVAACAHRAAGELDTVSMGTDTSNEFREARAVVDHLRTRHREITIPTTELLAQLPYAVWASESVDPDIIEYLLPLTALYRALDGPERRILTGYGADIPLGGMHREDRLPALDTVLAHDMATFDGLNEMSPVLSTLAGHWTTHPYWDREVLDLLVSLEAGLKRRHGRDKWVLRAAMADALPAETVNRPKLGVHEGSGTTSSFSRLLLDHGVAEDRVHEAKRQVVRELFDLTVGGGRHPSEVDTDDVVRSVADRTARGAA", "assay": "fluorescence detection pre-column derivatised HPLC substrate assay with polyhistidine tagged BLS", "type": "biochemical", "description": "The bls gene has previously been expressed at relatively low levels using a pET24a(+) construct and purified by an involved two column protocol giving low overall yields (McNaughton, H. J.; Thirkettle, J. E.; Zhang, Z. H.; Schofield, C. J.; Jensen, S. E.; Barton, B.; Greaves, P. J. Chem. Soc., Chem. Commun. 1998, 2325-2326; Bachmann, B. O.; Townsend, C. A. Biochemistry 2000, 39, 11187-11193). To facilitate purification a polyhistidine tagged form of BLS (β-lactam synthetase) was produced by cloning bis into the pET28a(+) vector (from Novagen). […]\nThe bls gene in the vector pET28a(+) and a plasmid bearing the chaperonin GroELS^13 were simultaneously transformed into E. coli BL21(DE3) for co-expression. […] When the absorbance at 600 nm reached ˜1.0, IPTG was added to a final concentration of 1.0 mM and the cells harvested 16 hours later by centrifugation. […]\nThe 2-methylated substrate analogue (6) was initially assayed as a substrate for BLS using a fluorescence detection pre-column derivatised HPLC assay based on the work of Kai et al (Kai, M.; Miyazaki, T.; Yamaguchi, M.; Ohkura, Y. J. Chromatogr. 1983, 425-436). […]\nReactions were incubated at 37° C. for 15 minutes and then derivatised. […] Fluorescence was measured at 425 nm against 325 nm excitation. […]", "data": [{"substance": "2-Methyl CEA", "values": [{"measurement": "relative substrate efficiency of the two 2-methyl epimers", "setting": "larger scale incubation, product isolated by HPLC, 1H NMR (500 MHz) analysis", "result": "both epimers are approximately equally efficient substrates"}, {"measurement": "conversion of 2-methyl CEA (6) to 2-methyl DGPC (9)", "setting": "standard assay conditions: 2 mM substrate, 5 mM ATP, 10 mM MgCl2, pH 9, ca. 74 μg enzyme, 37° C., 15 minutes", "result": "ca. 50%"}]}]}
